# From patent publication US20080200467A1, “SOLUBLE EPOXIDE HYDROLASE INHIBITORS” (Arete Therapeutics, Inc., priority 2006, published 2008)
# System: soluble epoxide hydrolase (sEH)
# Experiment: Fluorescent Assay for Mouse and Human Soluble Epoxide Hydrolase (CMNPC substrate)
# Type: biochemical
# Conditions: Concentration 50 nM
# Source text: Fluorescent Assay for Mouse and Human Soluble Epoxide Hydrolase Recombinant mouse sEH (MsEH) and human sEH (HsEH) were produced in a baculovirus expression system as previously reported. Grant et al., J. Biol. Chem., 268:17628-17633 (1993); Beetham et al., Arch. Biochem. Biophys., 305:197-201 (1993). The expressed proteins were purified from cell lysate by affinity chromatography. Wixtrom et al., Anal. Biochem., 169:71-80 (1988). Protein concentration was quantified using the Pierce BCA assay using bovine serum albumin as the calibrating standard. The preparations were at least 97% pure as judged by SDS-PAGE and scanning densitometry. They contained no detectable esterase or glutathione transferase activity which can interfere with the assay. The assay was also evaluated with similar results in crude cell lysates or homogenate of tissues. The IC50s for each inhibitor were according to the following procedure: [drawing 218] […] Jones P. D. et. al.; Analytical Biochemistry 2005; 343: pp. 66-75) Bis/Tris HCl 25 mM pH 7.0 containing 0.1 mg/mL of BSA (buffer […] at 0.25 mM in DMSO. Mother solution of enzyme in buffer A (Mouse sEH at 6 μg/mL and Human sEH at 5 μg/mL). Inhibitor dissolved in DMSO at the appropriate concentration. In a black 96 well plate, fill all the wells with 150 μL of buffer A. Add 2 μL of DMSO in well A2 and A3, and then add 2 μL of inhibitor solution in A1 and A4 through A12. Add 150 μL of buffer A in row A, then mix several time and transfer 150 μL to row B. Repeat this operation up to row H. The 150 μL removed from row H is discarded. Add 20 μL of buffer A in column 1 and 2, then add 20 μL of enzyme solution to column 3 to 12. Incubate the plate for 5 minutes in the plate reader at 30° C. During incubation prepare the working solution of substrate by mixing 3.68 mL of buffer A (4×0.920 mL) with 266 μL (2×133 μL) of substrate solution). At t=0, add 30 μL of working substrate solution with multi-channel pipette labeled “Briggs 303” and start the reading ([S]final: 5 μM). Read with ex: 330 nm (20 nm) and em: 465 nm (20 nm) every 30 second for 10 minutes. The velocities are used to analyze and calculate the IC50s. Tables 4-6 show the activity of compounds when tested with the assay at 50, 500, 5000, 50000, and 500000 nM.
row,SMILES,% Inhibition
1,"O=C(NCCc1ccc(OCc2ccccc2)cc1)C(O)CCC12CC3CC(CC(C3)C1)C2 (stereo not shown) [Compound 129, 4-Adamantan-1-yl-N-[2-(4-benzyloxy-phenyl)-ethyl]-2-hydroxy-butyramide]",70%
2,"O=C(NC1CCN(S(=O)(=O)c2ccc(Cl)cc2)CC1)C(O)C12CC3CC(CC(C3)C1)C2 (stereo not shown) [Compound 149, N-(1-(4-Chlorophenylsulfonyl)piperidin-4-yl)-2-adamantan-1-yl-2-hydroxyacetamide]",95%

# Same assay, conditions: Concentration 500 nM
row,SMILES,% Inhibition
1,"Cc1ccc(S(=O)(=O)N2CCC(CNC(=O)C(O)CC34CC5CC(CC(C5)C3)C4)CC2)cc1 (stereo not shown) [Compound 122, 3-Adamantan-1-yl-2-hydroxy-N-[1-(toluene-4-sulfonyl)-piperidin-4-ylmethyl]-propionamide]",88%
2,"Cc1ccc(S(=O)(=O)N2CCC(NC(=O)C(O)C34CC5CC(CC(C5)C3)C4)CC2)cc1 (stereo not shown) [Compound 124, 2-Adamantan-1-yl-2-hydroxy-N-[1-(toluene-4-sulfonyl)-piperidin-4-yl]-acetamide]",80%
3,"Cc1ccc(S(=O)(=O)N2CCC(NC(=O)C(O)CC34CC5CC(CC(C5)C3)C4)CC2)cc1 (stereo not shown) [Compound 128, 3-Adamantan-1-yl-2-hydroxy-N-[1-(toluene-4-sulfonyl)-piperidin-4-yl]-propionamide]",89%
4,"O=C(NC1CCN(S(=O)(=O)c2cccc(C(F)(F)F)c2)CC1)C(O)CC12CC3CC(CC(C3)C1)C2 (stereo not shown) [Compound 133, 3-Adamantan-1-yl-2-hydroxy-N-(1-(3-(trifluoromethyl)phenylsulfonyl)piperidin-4-yl)propanamide]",83%
5,"Cc1ccc(S(=O)(=O)N2CCC(NC(=O)C(O)CCC34CC5CC(CC(C5)C3)C4)CC2)cc1 (stereo not shown) [Compound 138, 4-Adamantan-1-yl-2-hydroxy-N-(1-tosylpiperidin-4-yl)butanamide]",79%
6,"Cc1ccc(S(=O)(=O)N2CCC(NC(=O)C(O)CCC3CCCCC3)CC2)cc1 (stereo not shown) [Compound 140, 4-Cyclohexyl-2-hydroxy-N-(1-tosylpiperidin-4-yl)butanamide]",78%

# Same assay, conditions: Concentration 5000 nM
row,SMILES,% Inhibition
1,"O=C(Nc1ccc(OCc2ccccc2)cc1)C(O)C12CC3CC(CC(C3)C1)C2 (stereo not shown) [Compound 118, 2-Adamantan-1-yl-N-(4-benzyloxy-phenyl)-2-hydroxy-acetamide]",95%
2,"COc1ccc(C(O)C(=O)NCC23CC4CC(CC(C4)C2)C3)cc1 (stereo not shown) [Compound 120, N-Adamantan-1-ylmethyl-2-hydroxy-2-(4-methoxy-phenyl)-acetamide]",79%
3,"O=C(NCC12CC3CC(CC(C3)C1)C2)C(O)c1ccc(C(F)(F)F)cc1 (stereo not shown) [Compound 121, N-Adamantan-1-ylmethyl-2-hydroxy-2-(4-trifluoromethyl-phenyl)-acetamide]",91%
4,"O=C(NC1CCN(S(=O)(=O)c2cccc(C(F)(F)F)c2)CC1)C(O)C12CC3CC(CC(C3)C1)C2 (stereo not shown) [Compound 123, 2-Adamantan-1-yl-2-hydroxy-N-[1-(3-trifluoromethyl-benzenesulfonyl)-piperidin-4-yl]-acetamide]",98%
5,"O=C(NCc1ccc(OCc2ccccc2)cc1)C(O)CC12CC3CC(CC(C3)C1)C2 (stereo not shown) [Compound 125, 3-Adamantan-1-yl-N-(4-benzyloxy-benzyl)-2-hydroxy-propionamide]",98%
6,"O=C(Nc1cccc(OCc2ccccc2)c1)C(O)CC1CCCCC1 (stereo not shown) [Compound 126, N-(3-Benzyloxy-phenyl)-3-cyclohexyl-2-hydroxy-propionamide]",78%
7,"Cc1ccc(S(=O)(=O)N2CCC(CNC(=O)C(O)C34CC5CC(CC(C5)C3)C4)CC2)cc1 (stereo not shown) [Compound 127, 2-Adamantan-1-yl-2-hydroxy-N-[1-(toluene-4-sulfonyl)-piperidin-4-ylmethyl]-acetamide]",84%
8,O=C(Nc1ccc(OCc2ccccc2)cc1)C(O)CCc1ccc(C(F)(F)F)cc1 (stereo not shown) [Compound 130],89%
9,O=C(Nc1cccc(OCc2ccccc2)c1)C(O)CCc1ccc(C(F)(F)F)cc1 (stereo not shown) [Compound 131],98%
10,"O=C(NCc1ccc(OCc2ccccc2)cc1)C(O)C12CC3CC(CC(C3)C1)C2 (stereo not shown) [Compound 134, N-(4-(Benzyloxy)benzyl)-2-adamantan-1-yl-2-hydroxyacetamide]",83%
11,"Cc1ccc(S(=O)(=O)N2CCC(NC(=O)C(O)CC3CCCCC3)CC2)cc1 (stereo not shown) [Compound 135, 3-Cyclohexyl-2-hydroxy-N-(1-tosylpiperidin-4-yl)propanamide]",89%
12,"Cc1ccc(S(=O)(=O)N2CCC(NC(=O)C(O)CCc3ccc(C(F)(F)F)cc3)CC2)cc1 (stereo not shown) [Compound 136, 2-Hydroxy-N-(1-tosylpiperidin-4-yl)-4-(4-(trifluoromethyl)phenyl)butanamide]",83%
13,"Cc1ccc(S(=O)(=O)N2CCC(NC(=O)C(O)C3CCCCC3)CC2)cc1 (stereo not shown) [Compound 137, 2-Cyclohexyl-2-hydroxy-N-(1-tosylpiperidin-4-yl)acetamide]",82%
14,"O=C(NCCc1ccc(OCc2ccccc2)cc1)C(O)CCc1ccc(C(F)(F)F)cc1 (stereo not shown) [Compound 139, N-(4-(Benzyloxy)phenethyl)-2-hydroxy-4-(4-(trifluoromethyl)phenyl)butanamide]",70%
15,"O=C(NCCc1ccc(OCc2ccccc2)cc1)C(O)CCC1CCCCC1 (stereo not shown) [Compound 141, N-(4-(Benzyloxy)phenethyl)-4-cyclohexyl-2-hydroxybutanamide]",91%
16,"O=C(Nc1ccc(OCc2ccccc2)cc1)C(O)CCC12CC3CC(CC(C3)C1)C2 (stereo not shown) [Compound 143, N-(4-(Benzyloxy)phenyl)-4-adamantan-1-yl-2-hydroxybutanamide]",99%
17,"O=C(NCCc1ccc(F)cc1)C(O)CCC12CC3CC(CC(C3)C1)C2 (stereo not shown) [Compound 145, 4-Adamantan-1-yl-N-(4-fluorophenethyl)-2-hydroxybutanamide]",95%
18,"O=C(NCc1ccc(OCc2ccccc2)cc1)C(O)CCC12CC3CC(CC(C3)C1)C2 (stereo not shown) [Compound 146, N-(4-(Benzyloxy)benzyl)-4-adamantyl-2-hydroxybutanamide]",73%
19,"O=C(NCCc1ccc(OCc2ccccc2)cc1)C(O)CC12CC3CC(CC(C3)C1)C2 (stereo not shown) [Compound 147, N-(4-(Benzyloxy)phenethyl)-3-adamantan-1-yl-2-hydroxypropanamide]",93%
20,"O=C(NC1CCN(S(=O)(=O)c2ccc(Cl)cc2)CC1)C(O)CC12CC3CC(CC(C3)C1)C2 (stereo not shown) [Compound 148, N-(1-(4-Chlorophenylsulfonyl)piperidin-4-yl)-3-adamantan-1-yl-2-hydroxypropanamide]",76%
21,"O=C(NCCc1ccc(OCc2ccccc2)cc1)C(O)C12CC3CC(CC(C3)C1)C2 (stereo not shown) [Compound 150, N-(4-(Benzyloxy)phenethyl)-2-adamantyl-2-hydroxyacetamide]",87%
22,"O=C(NCCc1ccc(Oc2ccccc2)cc1)C(O)CCC12CC3CC(CC(C3)C1)C2 (stereo not shown) [Compound 151, 4-Adamantan-1-yl-2-hydroxy-N-(4-phenoxyphenethyl)butanamide]",90%

# Same assay, conditions: Concentration 50000 nM
row,SMILES,% Inhibition
1,"O=C(Nc1ccc(OCc2ccccc2)cc1)C(O)CC12CC3CC(CC(C3)C1)C2 (stereo not shown) [Compound 117, 3-Adamantan-1-yl-N-(4-benzyloxy-phenyl)-2-hydroxy-propionamide]",81%
2,"O=C(Nc1ccc(OCc2ccccc2)cc1)C(O)CC1CCCCC1 (stereo not shown) [Compound 132, N-(4-(Benzyloxy)phenyl)-3-cyclohexyl-2-hydroxypropanamide]",65%
3,"Cc1ccc(S(=O)(=O)N2CCC(NC(=O)C(O)Cc3ccc(C(F)(F)F)cc3)CC2)cc1 (stereo not shown) [Compound 142, 2-Hydroxy-N-(1-tosylpiperidin-4-yl)-3-(4-(trifluoromethyl)phenyl)propanamide]",84%
4,"O=C(NCCc1ccc(OCc2ccccc2)cc1)C(O)Cc1ccc(C(F)(F)F)cc1 (stereo not shown) [Compound 144, N-(4-(Benzyloxy)phenethyl)-2-hydroxy-3-(4-(trifluoromethyl)phenyl)propanamide]",66%
